This data set can be described thus: Stability (degradation and discolouration) of injectable aqueous GXS formulation with antioxidants without refrigeration. It counts as physicochemical. As to conditions: antioxidant in GXS injectable formulation, room temperature. The source says:
In one arrangement, the injectable formulation includes a suitable antioxidant to enable the aqueous formulation to remain substantially stable (that is to resist discolouration and degradation) without refrigeration. Patent WO 2007/123800 claims a PPS formulation with “an antioxidant in the group metabisulfite, sodium bisulfate and ascorbate in a concentration of about 0.02% w/v to about 5.0% w/v” is stable without refrigeration. […] This finding supports a conclusion that GXS is a distinct entity to prior art PPS extracted from xylan.

With `O=S([O-])S(=O)(=O)[O-].[Na+].[Na+]` [Sodium metabisulfite], the “Exemplary effective concentration to achieve substantial stability of GXS injectable formulation” value (shortened to “Exemplary effective concentration”) was determined as 0.5% by weight/volume.

With `O=S([O-])O.[Na+]` [Sodium bisulfite ACS Reagent, Sodium bisulfite], the “Exemplary effective concentration” value is given as 0.5% by weight/volume.

As for `O=S(=O)([O-])CO.[Na+]` [Sodium hydroxymethane sulfonate], the “Exemplary effective concentration” value worked out at 1% by weight/volume.

The record behind these values is US9120877B2, “Sulfated polysaccharide compound and the preparation and use thereof” (PARNELL TECHNOLOGIES PTY LTD, priority 2008, dated 2015).
